For this experiment, the system named is skin tissue. The experiment is described as follows: Inventors' demonstration of the effect of monounsaturated fatty acids on skin tissue and complexion. The following applies: in vivo.

With `CCCCCCCCCCC/C=C\CCCCC(=O)O` [petroselinic acid], the “restoration of normal skin tissue / complexion” value is listed as “lead to a restoration of normal skin tissue in perfect homeostasis”.

The record behind these values is patent publication US9730905B2, “Monounsaturated fatty acid for preventing and/or treating skin complexion imperfections” (L'OREAL, priority 2010, dated 2017).
